According to US7267815B2, “Methods and reagents for the enhancement of virus transduction in the bladder epithelium” (priority 2002, dated 2007):

Tests used:
adenovirus = experiment: Study #3: compatibility of adenovirus with selected enhancers (plaque assay); type: physicochemical
Protocol: For this study, each sample was incubated at 37° C. or 25° C. before the plaque assay started.

[1] = system: SD rat bladder epithelium; experiment: Adenovirus dose titration with SDS or DDM pretreatment; type: in vivo, Sprague Dawley Rat; details: 0.1% pretreatment
From the text: (§1) All the animals had >90% in Ad-βgal gene expression in mice bladder. Adenovirus Dose Titration with Different Chemical Agents Pretreatment on SD Rat Bladder Epithelium • Species: Female Sprague Dawley Rat (Taconic Laboratory)—2/group • Study Design: To test the virus infectivity of rat bladder epithelium with different doses of Adenovirus following the pretreatment with SDS or DDM. This study also explored relationship between bladder volume and residual of SDS or DDM for adenovirus infectivity. • Dose/Route:
Rat bladders infected with 4×10^10 vp adenovirus achieved >90% Ad-βgal gene expression levels whereas rat bladders infected with 4×10^9 vp adenovirus had Ad-βgal gene expression levels range from 30% to 50%. […] Efficacy of Dodecyl-β-D-Maltoside as a Pretreatment Agent Prior to Adenovirus Infection of Mice Bladder Urothelium • Species: Female Balb/c Mouse (Taconic Laboratory)—2/group • Study Design: To test DDM from two different suppliers as pretreatment agents to enhance the adenovirus infection of mice bladder urothelium in a large group of animals. • Dose/Route: […]

[2] = system: SW780+ Luc orthotopic bladder tumor; experiment: DDM as chemical enhancer prior to Ad.LacZ infection of orthotopic bladder tumor model; type: in vivo, NCR nu/nu Mouse; details: DDM pretreatment (QQ5 minQ), 15 min Ad.Lac Z, 96 hrs; except dead necrotic tumor cells
From the text: In each case, >90% Ad-βgal expression was achieved. Therefore, DDM from either manufacturer is a good candidate for a chemical enhancer for adenovirus infection in mice bladder. Efficacy of Dodecyl-β-D-Maltoside as Chemical Enhancer Prior to Adenovirus Infection of SW780+ Luc Orthotopic Bladder Tumor Model in Mice • Species: Female NCR nu/nu Mouse (Taconic Laboratory)-2/group • Study Design: To show DDM pretreatments enhance Ad.Lac Z infectivity in mice bladder urothelium. To further confirm the enhancer effect on orthotopic tumors, two mice bearing orthotopic SW780 bladder tumors were pretreated with or without DDM (QQ5 minQ) followed by 15 min Ad.Lac Z instillation. The Ad.Lac Z gene expression levels were checked in these tumor cells 4 days post Ad.Lac Z infection. • Dose/Route:
Dodecyl-β-D-Maltoside (Lot#018H7250).
Results: There was a significant difference in Ad-βgal gene expression levels between mice bladders pretreated with DDM and control animals. Without DDM pretreatment, there was very low Ad-βgal gene expression levels in bladder epithelium cells and tumor cells. With DDM pretreatment, nearly 100% of the epithelium cells were transduced with Ad-βgal gene in bladder tumors except those dead necrotic tumor cells. It was concluded that DDM pretreatment enhances Adenovirus infection in orthotopic tumor cells. […]

mice bladder urothelium [3] = experiment: Effects of different diluents on adenovirus infectivity after DDM pretreatment; type: in vivo, Balb/c Mouse; details: DDM pretreatment (QQ5 minQ); virus diluted 100 fold with different diluents, 45 min, 1×10^9 vp/dose
Protocol: • Species: Female Balb/c Mouse (Taconic Laboratory)—2/group • Study Design: To test the effects of different diluents on Adenovirus infectivity of mice urothelium followed DDM pretreatment (QQ5 minQ). The virus would be diluted 100 fold with the diluents prior to instillation into mice bladder for 45 min. • Dose/Route:
Dodecyl-β-D-Maltoside (Lot #100K5308).
as §1, with “Dose/Route: […]” for “Dose/Route:”

adenovirus (Ad-LacZ) = experiment: Study #5: adenovirus stability after incubation with 0.1% SDS or 0.1% DDM (plaque assay); type: physicochemical; details: 0.1% solution, one hour at 25° C. or 37° C.
Protocol: In this study, adenovirus (Ad-LacZ) preparations (1.0×10^12 vp/ml) were mixed with solutions of SDS or DDM to obtain a mixture of adenovirus and each of these surfactants. […] These samples were incubated at 25° C. or 37° C. for one hour before freezing. They were sent to assay services for plaque assay analysis.

bladder = experiment: Histopathology of bladders after chemical agent pretreatment (pathologists report); type: in vivo, mouse (BALB/c)
From the text: Bladders fixed in whole organ fixative were sectioned and stained with hematoxylin-eosin for histologic examination.

mice bladder urothelium [4] = experiment: Adenovirus formulated with different concentrations of Dodecyl-β-D-Maltoside, infectivity of bladder urothelium; type: in vivo, Balb/c Mouse; details: for gene expression in bladder: 20 min. instillation
Protocol: • Species: Female Balb/c Mouse (Taconic Laboratory)-2/group • Study Design: To test the effect of formulating Ad-βgal virus with different concentrations of Dodecyl-β-D-Maltoside and the resultant infection of mice bladder urothelium • Dose/Route (Viral Particles #/dose):
An equal volume of 2× DDM and 2× Ad.CMV.LacZ was mixed together immediately before instillation into the bladder. […] But with 45 min. instillation, all animals with 0.05%-0.2% DDM with Ad-βgal virus had 100% gene expression in mice bladder.

In the case of `CCCCCCCCCCCCO[C@@H]1O[C@H](CO)[C@@H](O[C@H]2O[C@H](CO)[C@@H](O)[C@H](O)[C@H]2O)[C@H](O)[C@H]1O` [n-dodecyl β-D-maltoside, n-dodecyl-β-D-maltoside], the “Average pfu/mL” value (adenovirus; 25° C., 2 hours) is reported as 1.32E+10 pfu/mL, the Ratio vp/pfu (adenovirus; 25° C., 2 hours) is reported as 16 vp/pfu and the “Average pfu/mL” value (adenovirus; 37° C., 1 hour) is reported as 1.36E+10 pfu/mL. The Ratio vp/pfu (adenovirus; 37° C., 1 hour) was 16 vp/pfu, the “compatibility with the adenovirus (in words)” value (adenovirus; under the experimental conditions of Table 5) was “compatible with the adenovirus” and the “removal of GAG layer of bladder epithelium” value [1] was “effective to remove GAG layer of bladder epithelium”. For the same compound, the “epithelium cells transduced with Ad-βgal gene in bladder tumors” value [2] was ~100%, the “Ad-βgal gene expression in mice bladder” value (mice bladder urothelium [3]) was > 90% and the “effect on adenovirus (in words)” value (adenovirus (Ad-LacZ)) was “no adverse effects on adenovirus”. For the same compound, the pathologists report (bladder; 0.02% pre-treatment for 5 minutes) was “no significant lesions”, the pathologists report (bladder; 0.05% pre-treatment for 5 minutes) was “no significant lesions” and the pathologists report (bladder; 0.2% pre-treatment for 5 minutes) was “erosions, focal ulcer, moderate submucosal edema with mucosal compromise”. The “gene expression in bladder” value (mice bladder urothelium [4]; 0.05% DDM formulated with Ad-βgal virus) was “about 40%”, the “gene expression in mice bladder” value (mice bladder urothelium [4]; 0.05%-0.2% DDM with Ad-βgal virus, 45 min. instillation) was 100% and the “gene expression in bladder” value (mice bladder urothelium [4]; 0.1% DDM formulated with Ad-βgal virus) was “about 80%”. For the same compound, the “gene transduction (in words)” value (mice bladder urothelium [4]; 10 min. virus instillation after DDM pretreatment) was “gene transduction could be achieved” and the “transduction rate (in words)” value (mice bladder urothelium [4]; DDM formulated with virus, 10 min. instillation) was “did not achieve an acceptable transduction rate”.
